Reference: PubChem BioAssay AID248 (DTP/NCI, 2004)
Values joined by “and” are separate entries in the source; they are usually repeats but may differ in a detail not shown here. Identical values can stand only once. Toxic doses and inconclusive results are not listed. Cut-off read from the data, not from the text of the source: active = T/C of 150% or more; inactive = T/C below 125%.

Tested on: L1210 leukemia ip in BDF1 mice, survival T/C
Test: NCI In Vivo Anticancer Drug Screen. Data for tumor model L1210 Leukemia (intraperitoneal) in B6D2F1 (BDF1) mice
Settings: endpoint: mean survival time, higher = longer survival
In short: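 Read-out is survival time, reported as the treated-group measurement over the vehicle-control measurement.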

[1] = dose: 50.0 mg/kg/injection, schedule: Q01DX001 (ip), vehicle: saline
[2] = dose: 100.0 mg/kg/injection, schedule: Q01DX001 (ip), vehicle: saline
[3] = dose: 200.0 mg/kg/injection, schedule: Q01DX001 (ip), vehicle: saline
[4] = dose: 400.0 mg/kg/injection, schedule: Q01DX001 (ip), vehicle: saline

Measured: T/C

C=C[P+](c1ccccc1)(c1ccccc1)c1ccccc1
inactive: dose: 0.78 mg/kg/injection, schedule: Q01DX009 (ip), vehicle: saline 124 % of control | dose: 1.56 mg/kg/injection, schedule: Q01DX009 (ip), vehicle: saline 104 % of control | dose: 1.56 mg/kg/injection, schedule: Q04DX003 (ip), vehicle: saline 108 % of control | dose: 3.12 mg/kg/injection, schedule: Q01DX009 (ip), vehicle: saline 93 % of control | dose: 3.12 mg/kg/injection, schedule: Q04DX003 (ip), vehicle: saline 112 % of control | dose: 5.0 mg/kg/injection, schedule: Q01DX001 (ip), vehicle: saline 115 % of control | dose: 8.88 mg/kg/injection, schedule: Q01DX001 (ip), vehicle: saline 102 % of control and 104 % of control | dose: 10.0 mg/kg/injection, schedule: Q01DX001 (ip), vehicle: saline 115 % of control | dose: 10.0 mg/kg/injection, schedule: Q04DX003 (ip), vehicle: saline 98 % of control | dose: 13.34 mg/kg/injection, schedule: Q01DX001 (ip), vehicle: saline 102 % of control and 104 % of control | dose: 20.0 mg/kg/injection, schedule: Q01DX001 (ip), vehicle: saline 102 % of control and 104 % of control | dose: 20.0 mg/kg/injection, schedule: Q04DX003 (ip), vehicle: saline 92 % of control | dose: 30.0 mg/kg/injection, schedule: Q01DX001 (ip), vehicle: saline 101 % of control and 105 % of control | dose: 40.0 mg/kg/injection, schedule: Q01DX001 (ip), vehicle: saline 97 % of control

COc1c2c(c(OC(C)=O)c3c1C(=O)c1ccccc1C3=O)CCCC2
inactive: dose: 6.25 mg/kg/injection, schedule: Q01DX001 (ip), vehicle: saline 100 % of control | dose: 12.5 mg/kg/injection, schedule: Q01DX001 (ip), vehicle: saline 96 % of control | dose: 25.0 mg/kg/injection, schedule: Q01DX001 (ip), vehicle: saline 101 % of control | [1] 95 % of control | [2] 93 % of control

CC1(C)OC(=O)C(C#N)C1c1ccc(Cl)cc1 (centres undefined)
inactive: [2] 101 % of control | [3] 95 % of control | [4] 95 % of control

CN(CCNC(=O)NCCCCCCNC(=O)NCCN(C)c1ccccc1)c1ccccc1
inactive: dose: 100.0 mg/kg/injection, schedule: Q04DX002 (ip), vehicle: Klucel (hydroxypropylcellulose) (HPC) 105 % of control | dose: 200.0 mg/kg/injection, schedule: Q04DX002 (ip), vehicle: Klucel (hydroxypropylcellulose) (HPC) 97 % of control | dose: 400.0 mg/kg/injection, schedule: Q04DX002 (ip), vehicle: Klucel (hydroxypropylcellulose) (HPC) 108 % of control

Nc1nc2ccc([N+](=O)[O-])cc2s1
inactive: dose: 50.0 mg/kg/injection, schedule: Q01DX009 (ip), vehicle: Klucel (hydroxypropylcellulose) (HPC) 105 % of control | dose: 100.0 mg/kg/injection, schedule: Q01DX009 (ip), vehicle: Klucel (hydroxypropylcellulose) (HPC) 104 % of control | dose: 100.0 mg/kg/injection, schedule: Q04DX003 (ip), vehicle: saline 97 % of control | dose: 200.0 mg/kg/injection, schedule: Q04DX003 (ip), vehicle: saline 101 % of control | dose: 400.0 mg/kg/injection, schedule: Q04DX003 (ip), vehicle: saline 86 % of control

CCOC(=O)c1ccc2c3c(ccc([N+](=O)[O-])c13)CC2
inactive: [1] 98 % of control | [2] 104 % of control | [3] 101 % of control | [4] 98 % of control

NC(=O)COc1c(Cl)cc(Cl)cc1Cl
inactive: dose: 100.0 mg/kg/injection, schedule: Q04DX002 (ip), vehicle: saline with Tween-80 103 % of control | dose: 200.0 mg/kg/injection, schedule: Q04DX002 (ip), vehicle: saline with Tween-80 103 % of control | dose: 400.0 mg/kg/injection, schedule: Q04DX002 (ip), vehicle: saline with Tween-80 100 % of control

CCC1(C)CC(=O)NC(=O)C1
inactive: dose: 0.9 mg/kg/injection, schedule: Q01DX009 (ip), vehicle: saline 98 % of control | dose: 1.87 mg/kg/injection, schedule: Q01DX009 (ip), vehicle: saline 108 % of control | dose: 3.75 mg/kg/injection, schedule: Q01DX009 (ip), vehicle: saline 104 % of control | dose: 3.75 mg/kg/injection, schedule: Q04DX003 (ip), vehicle: saline 106 % of control | dose: 5.0 mg/kg/injection, schedule: Q04DX003 (ip), vehicle: saline with Tween-80 101 % of control | dose: 7.5 mg/kg/injection, schedule: Q01DX009 (ip), vehicle: saline 106 % of control | dose: 7.5 mg/kg/injection, schedule: Q04DX003 (ip), vehicle: saline 92 % of control | dose: 10.0 mg/kg/injection, schedule: Q04DX003 (ip), vehicle: saline with Tween-80 97 % of control | dose: 15.0 mg/kg/injection, schedule: Q01DX009 (ip), vehicle: saline 100 % of control | dose: 15.0 mg/kg/injection, schedule: Q04DX003 (ip), vehicle: saline 95 % of control

Cn1c(=O)n(C)c2nccnc21
inactive: dose: 12.5 mg/kg/injection, schedule: Q04DX002 (ip), vehicle: saline 108 % of control | dose: 25.0 mg/kg/injection, schedule: Q04DX002 (ip), vehicle: saline 105 % of control | dose: 50.0 mg/kg/injection, schedule: Q04DX002 (ip), vehicle: saline 94 % of control

O=c1c(O)c(-c2ccc(Cl)cc2)oc2cc(O)ccc12
inactive: dose: 100.0 mg/kg/injection, schedule: Q01DX001 (ip), vehicle: other 101 % of control | dose: 200.0 mg/kg/injection, schedule: Q01DX001 (ip), vehicle: other 101 % of control | dose: 400.0 mg/kg/injection, schedule: Q01DX001 (ip), vehicle: other 93 % of control

C=CCN(CC=C)C(=O)C(C)O (centres undefined)
inactive: dose: 100.0 mg/kg/injection, schedule: Q04DX003 (ip), vehicle: saline with Tween-80 103 % of control | dose: 200.0 mg/kg/injection, schedule: Q04DX003 (ip), vehicle: saline with Tween-80 103 % of control | dose: 400.0 mg/kg/injection, schedule: Q04DX003 (ip), vehicle: saline with Tween-80 98 % of control

CS(=O)(=O)N(CC(=O)O)Cc1cccc(Cl)c1
inactive: dose: 100.0 mg/kg/injection, schedule: Q01DX009 (ip), vehicle: other 100 % of control | dose: 100.0 mg/kg/injection, schedule: Q04DX003 (ip), vehicle: other 100 % of control | dose: 200.0 mg/kg/injection, schedule: Q01DX009 (ip), vehicle: other 101 % of control | dose: 200.0 mg/kg/injection, schedule: Q04DX003 (ip), vehicle: other 102 % of control | dose: 400.0 mg/kg/injection, schedule: Q01DX009 (ip), vehicle: other 97 % of control | dose: 400.0 mg/kg/injection, schedule: Q04DX003 (ip), vehicle: other 103 % of control

CC1CCC2C(CCC3CCCCC32)C1 (centres undefined)
inactive: [2] 107 % of control | [3] 107 % of control
